In PubChem BioAssay AID624167 (Sanford-Burnham Center for Chemical Genomics, 2012):
Active and inactive are the calls of the source.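 Rule for the calls: active = mean IC50 for reducing PEG3 promoter reporter signal at or below a set limit, with IC50 above the limit in both counter screens; inactive = the rest, including counter screen hits.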

Key:
[1] = system: PEG-3; experiment: inhibition of PEG-3 promoter-driven reporter – cell-based, HeLa, luciferase, CREF/GAPDH counter-screen panel, dose response (AID 624167); conditions: HeLa PEG-Prom luciferase reporter, overnight, CREF/GAPDH counter-screens
[2] = molecular target: PEG-3 (UniProt Q6IN02); experiment: as above; conditions: HeLa PEG-Prom luciferase reporter, overnight, CREF/GAPDH counter-screens, mean of runs
[3] = run 1, dose range 1, individual replicate IC50 per panel
[4] = run 2, dose range 1, individual replicate IC50 per panel

Sequence of PEG-3 (UniProt Q6IN02) (Q6IN02 whole entry, looked up): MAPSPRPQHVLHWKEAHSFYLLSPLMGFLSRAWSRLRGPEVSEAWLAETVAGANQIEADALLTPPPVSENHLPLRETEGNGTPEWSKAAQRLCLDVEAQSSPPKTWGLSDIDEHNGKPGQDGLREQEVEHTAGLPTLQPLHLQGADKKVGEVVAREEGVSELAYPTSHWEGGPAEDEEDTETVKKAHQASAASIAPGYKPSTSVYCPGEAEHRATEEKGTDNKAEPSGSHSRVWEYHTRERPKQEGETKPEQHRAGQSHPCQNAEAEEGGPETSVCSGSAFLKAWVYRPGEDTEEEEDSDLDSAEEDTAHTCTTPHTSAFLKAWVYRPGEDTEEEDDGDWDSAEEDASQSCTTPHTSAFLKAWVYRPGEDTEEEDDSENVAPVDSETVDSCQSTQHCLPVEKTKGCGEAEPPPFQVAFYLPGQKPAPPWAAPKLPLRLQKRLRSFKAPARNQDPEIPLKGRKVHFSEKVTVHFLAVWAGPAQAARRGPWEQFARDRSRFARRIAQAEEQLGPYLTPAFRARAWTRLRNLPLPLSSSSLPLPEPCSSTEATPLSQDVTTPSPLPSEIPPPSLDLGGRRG

| SMILES | IC50 [1, 3] [µM] | IC50 [1, 4] [µM] | IC50 [2] |
| --- | --- | --- | --- |
| Cc1cc(C)cc(NC(=O)Cn2c(=O)oc3cc(S(=O)(=O)N4CCC(C)CC4)ccc32)c1 | > 100 | 7.9 | inactive |
| CC(=O)c1cccc(-c2csc3ncnc(Sc4nnnn4C)c23)c1 | 16 | 15.3 | 15.7 µM |
| Cc1cc(C)c2sc(N(CCCN(C)C)C(=O)c3ccc(S(=O)(=O)N(C)C4CCCCC4)cc3)nc2c1 | 18.9 | 13 | 16 µM |
| CC1(C)CC(NC(=O)c2sc3cc(Cl)ccc3c2Cl)CC(C)(C)N1 | 20.7 | 15.6 | 18.1 µM |
| O=C(c1ccccc1)N(C(=O)c1ccccc1)c1ncnc2c1C(c1ccccc1)c1c(ccc3ccccc13)O2 (configuration not stated) | 4.36 | > 100 | inactive |
| CCC(=C(c1ccc(OC)cc1)c1ccc(OC)cc1)c1cn(CC(O)CN2CCN(C)CC2)c2ccccc12 (configuration not stated) | 18.9 | 12.5 | 15.7 µM |
| CS(=O)(=O)c1ccc(C(=O)NCCN2C(=O)S/C(=C\c3cccnc3)C2=O)cc1[N+](=O)[O-] | 17.3 | 12.7 | 15 µM |
| CCCCN(C)C(=O)c1ccc(Nc2nc(C(N)CCc3ccccc3)cs2)nc1 (configuration not stated) | 27.6 | 15.4 | inactive |
| O=C1c2ccccc2S(=O)(=O)N1Cc1nc2ccccc2s1 | 8.32 | 14.3 | 11.3 µM |
| CN(C)CCCN(C(=O)c1ccc(S(=O)(=O)N(C)Cc2ccccc2)cc1)c1nc2cc3c(cc2s1)OCO3 | 19.3 | 13.6 | 16.4 µM |
| CCCCCCCNC(=O)C1(CC2CC(c3ccccc3)=NO2)CCNCC1 (configuration not stated) | 35.4 | 16.7 | inactive |
| Oc1cccc(C(Nc2nccs2)c2ccc3cccnc3c2O)c1 (configuration not stated) | > 100 | 31.1 | inactive |
| COc1ccccc1N1CCN(C(=O)c2sc3ncnc(N4CCN(c5ccccn5)CC4)c3c2C)CC1 | 27.6 | 19.7 | inactive |
| CN(C)CC1CCC/C(=C/c2ccc(Cl)cc2)C1=O (configuration not stated) | 14.5 | 7.74 | 11.1 µM |
| O=[N+]([O-])c1ccc(-c2nc(Nc3cccc(O)c3)c3ccccc3n2)cc1 | 13.4 | 12.5 | 12.9 µM |
| Cc1ccc(F)cc1-c1cc2nc(NCCCN(C)C)n(C)c(=O)c2s1 | 30.9 | 59.5 | inactive |
| O=C(CCCN1C(=O)/C(=C/c2ccccc2Cl)SC1=S)NNC(=O)c1ccccc1Cl | 26.4 | 22 | inactive |
| CN(C)c1ccc(C(C(=O)NCc2ccccc2)N(Cc2ccco2)C(=O)c2snc(C(N)=O)c2N)cc1 (configuration not stated) | > 100 | > 100 | > 100 µM (inactive) |
| CCN(CCN(C)C)C(=O)C1CCN(S(=O)(=O)c2c(C)noc2/C=C/c2ccccc2F)CC1 | 28.2 | 21.4 | inactive |
| Cc1ccc(C2(CCNCc3ccc(N(C)C)cc3)CCOC(C(C)C)C2)cc1 (configuration not stated) | 25.9 | 21.3 | inactive |
| O=S(=O)(N[C@H]1C[C@@H](NS(=O)(=O)OCC(Cl)(Cl)Cl)C2CCCCC21)OCC(Cl)(Cl)Cl (some centres not stated) | 15.1 | 9.83 | 12.5 µM |
| CN1CCN(CCNC(=O)c2ccc3nc(-c4ccc(F)cc4)c(-c4ccc(F)cc4)nc3c2)CC1 | 19.4 | 11.3 | 15.4 µM |
| Cc1ccc(C)c(OCC(O)CN2CCC(CN3C(=O)c4cccc5cccc(c45)C3=O)CC2)c1 (configuration not stated) | 18.4 | 15.9 | 17.2 µM |
| CCCn1c(=N)n(CC(=O)c2ccc(Cl)cc2)c2ccccc21 | 19.1 | 49.4 | inactive |
